Laboratory results reported in US7585874B2, “Aryl-isoxazol-4-yl-imidazo[1,2-a]pyridine derivatives” (Hoffmann-La Roche Inc., priority 2006, dated 2009).

target: T1, GABA A receptor α5β3γ2 (Homo sapiens, UniProt P18507+P31644); assay: [3H]flumazenil competition binding, membranes of HEK293 cells expressing human GABA A α5β3γ2; conditions: human α5β3γ2 in HEK293 (transiently transfected); 0.5 nM [3H]flumazenil; 1 hour at 4° C.; means of two determinations; read-out: Ki[nM]hα5
T1 construct: expressed in transfected cells; host or cells: HEK293 (transiently transfected; membranes)
Experimental: The affinity of compounds at GABA A receptor subtypes was measured by competition for [3H]flumazenil (85 Ci/mmol; Roche) binding to HEK293 cells expressing rat (stably transfected) or human (transiently transfected) receptors of composition α1β3γ2, α2β3γ2, α3β3γ2 and α5β3γ2.
Cell pellets were suspended in Krebs-tris buffer (4.8 mM KCl, 1.2 mM CaCl2, 1.2 mM MgCl2, 120 mM NaCl, 15 mM Tris; pH 7.5; binding assay buffer), homogenized by polytron for ca. 20 sec on ice and centrifuged for 60 min at 4° C. (50000 g; Sorvall, rotor: SM24=20000 rpm). The cell pellets were resuspended in Krebs-tris buffer and homogenized by polytron for ca. 15 sec on ice. Protein was measured (Bradford method, Bio-Rad) and aliquots of 1 mL were prepared and stored at −80° C.
Radioligand binding assays were carried out in a volume of […] (96-well plates) which contained […] of cell membranes, [3H]flumazenil at a concentration of 1 nM for α1, α2, α3 subunits and 0.5 nM for α5 subunits and the test compound in the range of […]. Nonspecific binding was defined by 10^−5 M diazepam and typically represented less than 5% of the total binding. Assays were incubated to equilibrium for 1 hour at 4° C. and harvested onto GF/C uni-filters (Packard) by filtration using a Packard harvester and washing with ice-cold wash buffer 50 mM Tris; pH 7.5). After drying, filter-retained radioactivity was detected by liquid scintillation counting. Ki values were calculated using Excel-Fit (Microsoft) and are the means of two determinations.

**Q.** How did the Ki turn out when `Cc1onc(-c2ccccc2)c1-c1cn2cc(C(=O)NCCN3CCOCC3)ccc2n1` [Example 38, 2-(5-Methyl-3-phenyl-isoxazol-4-yl)-imidazo[1,2-a]pyridine-6-carboxylic acid (2-morpholin-4-yl-ethyl)-amide] was run?
**A.** 174 nM

**Q.** Which Ki does the source give for `Cc1onc(-c2ccccc2)c1-c1cn2cc(C(=O)NCc3cccnc3)ccc2n1` [Example 41, 2-(5-Methyl-3-phenyl-isoxazol-4-yl)-imidazo[1,2-a]pyridine-6-carboxylic acid (pyridin-3-ylmethyl)-amide] here?
**A.** 41.2 nM

**Q.** `Cc1onc(-c2ccccc2)c1-c1cn2cc(C(=O)NCc3ccncc3)ccc2n1` [Example 42, 2-(5-Methyl-3-phenyl-isoxazol-4-yl)-imidazo[1,2-a]pyridine-6-carboxylic acid (pyridin-4-ylmethyl)-amide] was tested. Which Ki did it give?
**A.** 85.5 nM

**Q.** With `Cc1onc(-c2ccccc2)c1-c1cn2cc(C(=O)NCc3ccco3)ccc2n1` [Example 43, 2-(5-Methyl-3-phenyl-isoxazol-4-yl)-imidazo[1,2-a]pyridine-6-carboxylic acid (furan-2-ylmethyl)-amide] as the molecule, how does the Ki read?
**A.** 36.9 nM

**Q.** With `C#Cc1ccn2cc(-c3c(-c4ccccc4)noc3C)nc2c1` [Example 45, 7-Ethynyl-2-(5-methyl-3-phenyl-isoxazol-4-yl)-imidazo[1,2-a]pyridine] as the molecule, how does the Ki read?
**A.** 189 nM

**Q.** With `Cc1onc(-c2ccccc2)c1-c1cn2ccc(N)cc2n1` [Example 46, 2-(5-Methyl-3-phenyl-isoxazol-4-yl)-imidazo[1,2-a]pyridin-7-ylamine] as the molecule, how does the Ki read?
**A.** 90.3 nM

**Q.** `Cc1onc(-c2ccccc2)c1-c1cn2ccc(NC(=O)Cc3cccnc3)cc2n1` [Example 47, N-[2-(5-Methyl-3-phenyl-isoxazol-4-yl)-imidazo[1,2-a]pyridin-7-yl]-2-pyridin-3-yl-acetamide] was tested. Which Ki did it give?
**A.** 50.7 nM

**Q.** How did the Ki turn out when `Cc1onc(-c2ccccc2)c1-c1cn2ccc(NC(=O)C3CC3)cc2n1` [Example 48, Cyclopropanecarboxylic acid [2-(5-methyl-3-phenyl-isoxazol-4-yl)-imidazo[1,2-a]pyridin-7-yl]-amide] was run?
**A.** 79.4 nM

**Q.** How did the Ki turn out when `Cc1onc(-c2ccccc2)c1-c1cn2ccc(NC(=O)C3CCC3)cc2n1` [Example 49, Cyclobutanecarboxylic acid [2-(5-methyl-3-phenyl-isoxazol-4-yl)-imidazo[1,2-a]pyridin-7-yl]-amide] was run?
**A.** 80.5 nM

**Q.** How did the Ki turn out when `Cc1onc(-c2ccccc2)c1-c1cn2ccc(NC(=O)C3CCCC3)cc2n1` [Example 50, Cyclopentanecarboxylic acid [2-(5-methyl-3-phenyl-isoxazol-4-yl)-imidazo[1,2-a]pyridin-7-yl]-amide] was run?
**A.** 85.9 nM

**Q.** For `Cc1onc(-c2ccccc2)c1-c1cn2ccc(NC(=O)c3cccnc3)cc2n1` [Example 51, N-[2-(5-Methyl-3-phenyl-isoxazol-4-yl)-imidazo[1,2-a]pyridin-7-yl]-nicotinamide], which Ki is on record?
**A.** 76.2 nM

**Q.** For `Cc1onc(-c2ccccc2)c1-c1cn2cc(I)ccc2n1` [Example 52, 6-Iodo-2-(5-methyl-3-phenyl-isoxazol-4-yl)-imidazo[1,2-a]pyridine], which Ki is on record?
**A.** 143 nM

**Q.** With `C#Cc1ccc2nc(-c3c(-c4ccccc4)noc3C)cn2c1` [Example 53, 6-Ethynyl-2-(5-methyl-3-phenyl-isoxazol-4-yl)-imidazo[1,2-a]pyridine] as the molecule, how does the Ki read?
**A.** 164 nM

**Q.** With `Cc1onc(-c2ccccc2)c1-c1cn2cc(N)ccc2n1` [Example 54, 2-(5-Methyl-3-phenyl-isoxazol-4-yl)-imidazo[1,2-a]pyridin-6-ylamine] as the molecule, how does the Ki read?
**A.** 88.1 nM

**Q.** `Cc1onc(-c2ccccc2)c1-c1cn2cc(NC(=O)CC3CC3)ccc2n1` [Example 55, 2-Cyclopropyl-N-[2-(5-methyl-3-phenyl-isoxazol-4-yl)-imidazo[1,2-a]pyridin-6-yl]-acetamide] was tested. Which Ki did it give?
**A.** 38.4 nM

**Q.** How did the Ki turn out when `Cc1onc(-c2ccccc2)c1-c1cn2cc(NC(=O)Cc3cccnc3)ccc2n1` [Example 56, N-[2-(5-Methyl-3-phenyl-isoxazol-4-yl)-imidazo[1,2-a]pyridin-6-yl]-2-pyridin-3-yl-acetamide] was run?
**A.** 54.3 nM

**Q.** Which Ki does the source give for `Cc1onc(-c2ccccc2)c1-c1cn2cc(NC(=O)C3CC3)ccc2n1` [Example 57, Cyclopropanecarboxylic acid [2-(5-methyl-3-phenyl-isoxazol-4-yl)-imidazo[1,2-a]pyridin-6-yl]-amide] here?
**A.** 20.8 nM

**Q.** For `Cc1onc(-c2ccccc2)c1-c1cn2cc(NC(=O)C3CCC3)ccc2n1` [Example 58, Cyclobutanecarboxylic acid [2-(5-methyl-3-phenyl-isoxazol-4-yl)-imidazo[1,2-a]pyridin-6-yl]-amide], which Ki is on record?
**A.** 28.2 nM

**Q.** How did the Ki turn out when `Cc1onc(-c2ccccc2)c1-c1cn2cc(NC(=O)C3CCCC3)ccc2n1` [Example 59, Cyclopentanecarboxylic acid [2-(5-methyl-3-phenyl-isoxazol-4-yl)-imidazo[1,2-a]pyridin-6-yl]-amide] was run?
**A.** 54.7 nM

**Q.** With `Cc1onc(-c2ccccc2)c1-c1cn2cc(NC(=O)c3ccccc3)ccc2n1` [Example 60, N-[2-(5-Methyl-3-phenyl-isoxazol-4-yl)-imidazo[1,2-a]pyridin-6-yl]-benzamide] as the molecule, how does the Ki read?
**A.** 30.7 nM

**Q.** Which Ki does the source give for `Cc1onc(-c2ccccc2)c1-c1cn2cc(NC(=O)c3cccnc3)ccc2n1` [Example 61, N-[2-(5-Methyl-3-phenyl-isoxazol-4-yl)-imidazo[1,2-a]pyridin-6-yl]-nicotinamide] here?
**A.** 9.4 nM

**Q.** How did the Ki turn out when `Cc1onc(-c2ccccc2)c1-c1cn2cc(N3CCC3=O)ccc2n1` [Example 62, 1-[2-(5-Methyl-3-phenyl-isoxazol-4-yl)-imidazo[1,2-a]pyridin-6-yl]-azetidin-2-one] was run?
**A.** 27 nM

**Q.** `Cc1onc(-c2ccccc2)c1-c1cn2cc(N3CCCC3=O)ccc2n1` [Example 63, 1-[2-(5-Methyl-3-phenyl-isoxazol-4-yl)-imidazo[1,2-a]pyridin-6-yl]-pyrrolidin-2-one] was tested. Which Ki did it give?
**A.** 48.7 nM

**Q.** With `Cc1onc(-c2ccccc2)c1-c1cn2cc(-n3cccc3)ccc2n1` [Example 64, 2-(5-Methyl-3-phenyl-isoxazol-4-yl)-6-pyrrol-1-yl-imidazo[1,2-a]pyridine] as the molecule, how does the Ki read?
**A.** 73.2 nM

**Q.** With `Cc1onc(-c2ccccc2)c1-c1cn2cc(-n3cccn3)ccc2n1` [Example 65, 2-(5-Methyl-3-phenyl-isoxazol-4-yl)-6-pyrazol-1-yl-imidazo[1,2-a]pyridine] as the molecule, how does the Ki read?
**A.** 41.1 nM

**Q.** For `Cc1onc(-c2ccccc2)c1-c1cn2cc(-n3ccnc3)ccc2n1` [Example 66, 6-Imidazol-1-yl-2-(5-methyl-3-phenyl-isoxazol-4-yl)-imidazo[1,2-a]pyridine], which Ki is on record?
**A.** 57.4 nM

**Q.** How did the Ki turn out when `Cc1onc(-c2ccccc2)c1-c1cn2c(-n3ccnc3)cccc2n1` [Example 67, 5-Imidazol-1-yl-2-(5-methyl-3-phenyl-isoxazol-4-yl)-imidazo[1,2-a]pyridine] was run?
**A.** 13.4 nM

**Q.** For `c1ccc(-c2noc(C3CC3)c2-c2cn3ccccc3n2)cc1` [Example 68, 2-(5-Cyclopropyl-3-phenyl-isoxazol-4-yl)-imidazo[1,2-a]pyridine], which Ki is on record?
**A.** 5.5 nM

**Q.** How did the Ki turn out when `Brc1ccc2nc(-c3c(-c4ccccc4)noc3C3CC3)cn2c1` [Example 69, 6-Bromo-2-(5-cyclopropyl-3-phenyl-isoxazol-4-yl)-imidazo[1,2-a]pyridine] was run?
**A.** 7.13 nM
